Test results taken from EP1208096B1, “SUBSTITUTED PYRIDAZINES AND FUSED PYRIDAZINES WITH ANGIOGENESIS INHIBITING ACTIVITY” (Bayer Corporation, priority 1999, dated 2001).

Tested on: SK-MEL2 human tumor cells that were transfected with a plasmid containing the murine VEGF gene
Assay: Matrigel Angiogenesis Model (hemoglobin content of Matrigel plugs)
Assay type: in vivo, Mice
Settings: 30, 100 and 300 mg/kg po sid; 12 days post-implantation; vs. vehicle control animals
Procedure: Preparation of Matrigel Plugs and in vivo Phase: Matrigel® (Collaborative Biomedical Products, Bedford, MA) is a basement membrane extract from a murine tumor composed primarily of laminin, collagen IV and heparan sulfate proteoglycan. It is provided as a sterile liquid at 4° C, but rapidly forms a solid gel at 37° C.
Liquid Matrigel at 4° C was mixed with SK-MEL2 human tumor cells that were transfected with a plasmid containing the murine VEGF gene with a selectable marker. Tumor cells were grown in vitro under selection and cells were mixed with cold liquid Matrigel at a ratio of 2 X 10^6 per 0.5 ml. […]
Optical densities were determined spectrophotometrically at 600 nm in a 96-well plate reader, SpectraMax 250 Microplate Spectrophotometer System (Molecular Devices, Sunnyvale, CA). Background Lysis Buffer readings were subtracted from all wells.
Total sample hemoglobin content was calculated according to the following equation: Total Hemoglobin = (Sample Lysate Volume) x (Hemoglobin Concentration) [formula]
The average Total Hemoglobin of Matrigel samples without cells was subtracted from each Total Hemoglobin Matrigel sample with cells. Percent inhibition was calculated according to the following equation: % Inhibition =((Average Total Hemoglobin Drug-Treated Tumor Lysates) X 100)/((Average Total Hemoglobin Non-Treated Tumor Lysates)) [formula]

## CNC(=O)c1cc(Cc2nnc(Nc3ccc(Cl)cc3)c3ccccc23)ccn1 [Example 1, 4-[4-(4-Chlorophenylamino)phthalazin-1-ylmethyl]pyridin-2-yl carboxylic acid methylamide]
  inhibition of total hemoglobin content of the Matrigel samples: > 50%
